Key:
[1] = test system: healthy subjects; assay: Local nasal tolerability scoring (0 to 3) during 72 hours of pulsed nitric oxide inhalation; assay type: in vivo, human; details: for Local tolerability Mean Score / Percent of Subjects Experiencing Nasal Irritation: 72 hours
Experimental: (§1) A multiple-dose, single-blind, placebo-controlled, tolerance study of pulsed volumes of nitric oxide was completed using healthy subjects. An objective of the study was to determine safe dosing limits of inhaled nitric oxide delivered via a pulse system at cylinder concentrations of 100, 400, and 800 ppm and gas volumes ranging from 4 to 60 mL/breath at dose rates ranging from 17 to 166 μg of NO/sec. Yet another objective of the study was to determine the safety profile, including adverse events (AEs), vital signs and laboratory parameters.
Six subjects were assigned to each cohort (5 NO, 1 placebo) in a randomized, single-blind fashion. […] A total of 22 cohorts were evaluated, with NO doses ranging from 125 to 1500 nmol/breath at delivery concentrations of 100, 400, or 800 ppm and varying volumes (4 to 60 mL per breath) in a matrix design, as shown in Table 1. Vital signs and safety laboratory were evaluated. […]
(§2) Primary safety evaluations included: (1) qualitative assessment of local nasal tolerability via a scoring system (0 to 3); and (2) formation of MetHb (compared with a standard of 7%) following varying concentrations and volumes of pulsed doses of NO. Safety evaluations included assessments of adverse events (AEs), medical history, physical examinations, vital signs, electrocardiograms (ECGs) and laboratory assessments at baseline and during the study period.
(§3) All evaluations were performed on the ‘Safety’ population, defined as all subjects who were enrolled and treated with any amount of study drug. Descriptive statistics included mean, standard deviation (SD), range, median, CV %, geometric mean and geometric CV %.
(§4) For analysis purposes, cohorts that received the same dose of NO but different cylinder concentrations and volumes were pooled, thereby creating 15 dose levels (n=14 active NO and 1 placebo, from all dose groups combined). These 15 dose levels were grouped into 4 dose analysis groups: placebo, low-dose NO (1-500 nmol/breath), mid-dose NO (501-1000 nmol/breath), and high-dose NO (1001-1500 nmol/breath).
For analysis purposes, cohorts that received the same dose rate of administration of NO but different cylinder concentrations, doses and volumes were pooled, thereby creating 6 dose rate of administration levels (n=5 active NO and 1 placebo, from all rate of administration groups combined). The dose rate of administration of NO was calculated as the product of the flow rate of NO and the cylinder NO concentration.

[2] = test system: healthy subjects; assay: Multiple-dose, single-blind, placebo-controlled tolerance study of pulsed nitric oxide: adverse events; assay type: in vivo, human; details: for Total % with any AE: 72 h pulsed inhalation
Experimental: as §1
Six subjects were assigned to each cohort (5 NO, 1 placebo) in a randomized, single-blind fashion. All subjects received 72 hours of continuous inhalation. A total of 22 cohorts were evaluated, with NO doses ranging from 125 to 1500 nmol/breath at delivery concentrations of 100, 400, or 800 ppm and varying volumes (4 to 60 mL per breath) in a matrix design, as shown in Table 1. Vital signs and safety laboratory were evaluated. Blood samples for determination of methemoglobin (MetHb) in venous blood, were collected for 72 hours at selected time points.
as §2, §3, §4

[3] = NO 501-1000 nmol/breath (N = 45)
[4] = NO 1001-1500 nmol/breath (N = 15)

## [N]=O [NO, Nitric oxide]
[1]; cylinder concentration 100 ppm
  Local tolerability Mean Score: 0.10
[1]; cylinder concentration 400 ppm
  Local tolerability Mean Score: 0.09
[1]; cylinder concentration 800 ppm
  Local tolerability Mean Score: 0.33
[1]; dose group 125 nmol/breath, score 0 to 3
  Local tolerability Mean Score: 0.07
[1]; dose group 250 nmol/breath, score 0 to 3
  Local tolerability Mean Score: 0.00
[1]; dose group 340 nmol/breath, score 0 to 3
  Local tolerability Mean Score: 0.10
[1]; dose group 420 nmol/breath, score 0 to 3
  Local tolerability Mean Score: 0.00
[1]; dose group 500 nmol/breath, score 0 to 3
  Local tolerability Mean Score: 0.10
[1]; dose group 585 nmol/breath, score 0 to 3
  Local tolerability Mean Score: 0.40
[1]; dose group 670 nmol/breath, score 0 to 3
  Local tolerability Mean Score: 0.00
[1]; dose group 750 nmol/breath, score 0 to 3
  Local tolerability Mean Score: 0.00
[1]; dose group 840 nmol/breath, score 0 to 3
  Local tolerability Mean Score: 0.60
[1]; dose group 920 nmol/breath, score 0 to 3
  Local tolerability Mean Score: 0.00
[1]; dose group 1000 nmol/breath, score 0 to 3
  Local tolerability Mean Score: 0.33
[1]; dose group 1160 nmol/breath, score 0 to 3
  Local tolerability Mean Score: 0.40
[1]; dose group 1340 nmol/breath, score 0 to 3
  Local tolerability Mean Score: 0.20
[1]; dose group 1500 nmol/breath, score 0 to 3
  Local tolerability Mean Score: 0.75
[1]; dosing rate 17 μg NO/sec
  Percent of Subjects Experiencing Nasal Irritation: 0%
[1]; dosing rate 21 μg NO/sec
  Percent of Subjects Experiencing Nasal Irritation: 10.0%
[1]; dosing rate 33 μg NO/sec
  Percent of Subjects Experiencing Nasal Irritation: 10%
[1]; dosing rate 83 μg NO/sec
  Percent of Subjects Experiencing Nasal Irritation: 10%
[1]; dosing rate 167 μg NO/sec
  Percent of Subjects Experiencing Nasal Irritation: 36.4%
[1]; pulse volume 4 mL/pulse
  Local tolerability Mean Score: 0.00
[1]; pulse volume 8 mL/pulse
  Local tolerability Mean Score: 0.00
[1]; pulse volume 10 mL/pulse
  Local tolerability Mean Score: 0.20
[1]; pulse volume 15 mL/pulse
  Local tolerability Mean Score: 0.10
[1]; pulse volume 20 mL/pulse
  Local tolerability Mean Score: 0.00
[1]; pulse volume 25 mL/pulse
  Local tolerability Mean Score: 0.60
[1]; pulse volume 30 mL/pulse
  Local tolerability Mean Score: 0.07
[1]; pulse volume 35 mL/pulse
  Local tolerability Mean Score: 0.40
[1]; pulse volume 40 mL/pulse
  Local tolerability Mean Score: 0.10
[1]; pulse volume 45 mL/pulse
  Local tolerability Mean Score: 0.33
[1]; pulse volume 50 mL/pulse
  Local tolerability Mean Score: 0.00
[1]; pulse volume 55 mL/pulse
  Local tolerability Mean Score: 0.00
[1]; pulse volume 60 mL/pulse
  Local tolerability Mean Score: 0.30
[1]; doses less than 420 nmol/breath (about 0.4 mg/kg/hr), 48 hours of continuous administration
  Nasal irritation: no evidence of nasal irritation
[1]; doses less than 420 nmol/breath, at 72 hours
  Nasal tolerability compared with placebo: no different than for placebo
[1]; doses less than 420 nmol/breath, at 72 hours, placebo 3/18
  Subjects with nasal redness: 2/18
[1]; dosing rate of 166 μg g/sec, including a case of nasal ulceration
  Incidence of nasal irritation: higher incidence of nasal irritation
[1]; dosing rates up to 166 μg/sec, 72 hours pulsed dosing
  Nasal tolerability compared with placebo: not different from placebo
[2]; NO 1-500 nmol/breath (N = 50)
  Back pain (% of subjects): 6.0%
  Headache (% of subjects): 8.0%
  Nausea (% of subjects): 2.0%
  Total % with any AE: 28.0%
[2]; [3]
  Back pain (% of subjects): 4.4%
  Headache (% of subjects): 4.4%
  Nausea (% of subjects): 4.4%
  Total % with any AE: 33.3%
[2]; [4]
  Back pain (% of subjects): 0.0%
  Headache (% of subjects): 20.0%
  Nausea (% of subjects): 6.7%
  Total % with any AE: 53.3%
[2]; across dose, cylinder concentration and volume cohorts
  Overall incidence of AEs: only dose related
[2]; high-dose NO group (1001-1500 nmol/breath), one subject
  Subjects withdrawn due to chest discomfort, decreased O2 saturation, and dyspnea: 6.7%
